A word on the IC50: it is the concentration needed to halve the response being measured.

A short description of assay [1]: Cytotoxicity against human QGY7701 cells assessed as growth inhibition incubated for 72 hrs by MTT assay. Format: functional, cell-based. The conditions noted are these: QGY7701, 72 h. In general terms: Tetrazolium assays rely on reduction of a dye to a coloured formazan, in cell work by metabolically active cells.
Assay [2] relates to A549. As to the kind of experiment: Cytotoxicity against human A549 cells assessed as growth inhibition incubated for 72 hrs by MTT assay. Conditions: A549, 72 h. The class given is functional, cell-based.
The test system of assay [3] is HL-60. The experiment in a line: Cytotoxicity against human HL60 cells assessed as growth inhibition incubated for 72 hrs by CCK8 assay. Format: functional, cell-based. The conditions noted are these: HL-60, 72 h.
The subject of assay [4] is HCT-116. As to the kind of experiment: Cytotoxicity against human HCT116 cells assessed as growth inhibition incubated for 72 hrs by MTT assay. Format: functional, cell-based. The conditions noted are these: HCT-116, 72 h.
For assay [5], the system named is RAW264.7. The experiment in a line: Anti-inflammatory activity against LPS-induced mouse RAW264.7 cells assessed as inhibition of nitric oxide production incubated for 20 mins before LPS induction by Griess method. The class given is functional, cell-based. On the technique in general: The Griess reaction detects nitrite, a stable product of nitric oxide.
In assay [6] the test system is RAW264.7. The experiment in a line: Cytotoxicity against LPS-induced mouse RAW264.7 cells incubated for 18 hrs by MTT assay. The class given is cell-based. The conditions noted are these: RAW264.7, 18 h.
For assay [7], the system named is SMMC-7721. The experiment in a line: Cytotoxicity against human SMMC7721 cells assessed as growth inhibition incubated for 72 hrs by MTT assay. The class given is functional, cell-based. The conditions noted are these: SMMC-7721, 72 h.
Assay [8] relates to MCF7. The experiment in a line: Cytotoxicity against human MCF7 cells assessed as growth inhibition incubated for 72 hrs by MTT assay. The conditions noted are these: MCF7, 72 h. The class given is functional, cell-based.

With `C=C(C)CC[C@H](OC(C)=O)[C@@]1(C)C[C@@H]2OC(=O)C(=C)[C@@H]2CC1=O`, the IC50 in assay [1] amounted to 4.88 µM; in assay [2] it was 11 µM; in assay [3], 7.31 µM; in assay [4], 8.53 µM; in assay [5], 4.63 µM; in assay [6], 14.4 µM. Besides, the results for the IC50 in assay [7] and in assay [8] were 24.8 µM and 12 µM, respectively.

Consider `C=C(C)CC[C@H](O)[C@@]1(C)C[C@@H]2OC(=O)C(=C)[C@@H]2CC1=O`, for which the IC50 in assay [1] turned out to be 8.7 µM; in assay [2], 17.4 µM; in assay [3], 14.8 µM; in assay [4] it was 19.2 µM; in assay [5] it was 6.12 µM; in assay [6], 26.6 µM. Moreover, the figures for the concentration for half-maximal inhibition (IC50) in assay [7] and in assay [8] were 53.1 µM and 18.9 µM, respectively.

Consider `C=C1C(=O)O[C@H]2C[C@@]3(C)C(=O)[C@@H]([C@@H]12)[C@](O)(CC)C[C@@H]3OCOC`, for which the IC50 in assay [1] is 7.75 µM; in assay [2], 17 µM; in assay [3], 9.37 µM; in assay [4] it was 14.5 µM; in assay [5] it was 6.7 µM; in assay [6] it was 20.1 µM. In addition, the 50% inhibitory concentration (IC50) in assay [7] amounted to 31.7 µM; in assay [8] it was 16.4 µM.

Turning to `C=C1C(=O)O[C@H]2C[C@](C)(/C=C/C(=O)CC)C(=O)C[C@@H]12`, the 50% inhibitory concentration (IC50) turned out to be 6.16 µM in assay [1]; 10.5 µM in assay [2]; 1.02 µM in assay [3]; 5.8 µM in assay [4]; 4.72 µM in assay [5]; 9.94 µM in assay [6]. For the same compound, the values for the half-maximal inhibitory concentration (IC50) in assay [7] and in assay [8] were 25.4 µM and 9.03 µM, respectively.

For `C=C1C(=O)O[C@H]2C[C@](C)(C(=O)CC(=O)CC)C(=O)C[C@@H]12`, the IC50 in assay [1] was 13.7 µM; in assay [2], 21.9 µM; in assay [3], 16.4 µM; in assay [4], 21 µM; in assay [5], 6.99 µM; in assay [6], 47.2 µM. Also, the IC50 in assay [7] came to 48.6 µM; in assay [8], 27.2 µM.

`C=C1C(=O)O[C@H]2C[C@]3(C)C(=O)C=C(CC)OC3=C[C@@H]12`: the IC50 in assay [1] was 3.55 µM; in assay [2], 9.58 µM; in assay [3], 5.06 µM; in assay [4], 9.37 µM; in assay [5], 3.44 µM; in assay [6], 10.3 µM. Also, the IC50 in assay [7] was 19.6 µM; in assay [8], 7.86 µM.

Regarding `C=C1C(=O)O[C@H]2C[C@]3(C)C(=O)C=C(CC)[C@@H](C3=O)[C@@H]12`, the IC50 is 5.55 µM in assay [1]; 9.65 µM in assay [2]; 3.8 µM in assay [3]; 9.94 µM in assay [4]; 4.26 µM in assay [5]; 12.2 µM in assay [6]. For the same compound, the results for the half-maximal inhibitory concentration (IC50) in assay [7] and in assay [8] were 27.2 µM and 11.6 µM, respectively.

For `C=C1C(=O)O[C@H]2C[C@@H](C)C(=O)C[C@@H]12`, the 50% inhibitory concentration (IC50) was found to be 8.58 µM in assay [1]; 14.9 µM in assay [2]; 12.6 µM in assay [3]; 18.3 µM in assay [4]; 5.82 µM in assay [5]; 30.6 µM in assay [6]. Also, the IC50 in assay [7] was found to be 42.6 µM; in assay [8] it was 15.7 µM.

`COc1cccc2c1C(=O)c1c(O)c3c(c(O)c1C2=O)C[C@@](O)(C(=O)CO)C[C@@H]3O[C@H]1C[C@H](N)[C@H](O)[C@H](C)O1` [DOXORUBICIN]: the concentration for half-maximal inhibition (IC50) in assay [4] was 0.18 µM; in assay [7] it was 0.57 µM.

Take `N=C(N)NN` [PIMAGEDINE]: the half-maximal inhibitory concentration (IC50) in assay [5] came to 11.9 µM.

(Values after ChEMBL document CHEMBL3621124, “Synthesis, cytotoxicity and inhibition of NO production of ivangustin enantiomer analogues” (Eur J Med Chem, 2015).)
